One assay relates to Kasumi-1 cells. As to the kind of experiment: Kasumi-1 cellular viability assay (ATP-Lite, 72 h). Particulars: Homo sapiens, ATP-Lite luminescence, % viability relative to DMSO. It is filed as cell-based. On the procedure: Kasumi-1 cell line was purchased from ATCC (ATCC® CRL2724™). Cells were isolated from the peripheral blood of a child with acute myeloid leukemia (AML FAB M2) (in 2nd relapse after bone marrow transplantation) in 1989. Most cells are round. Kasumi-1 cells are observed to grow individually or in small clumps in suspension.
Kasumi-1 cells are cultured in RPMI-1640 (Gibco A10491-01) containing 10% heat-inactivated and 0.22 μm filtered FBS (Gibco 10270-106) at a density of 3E+5 and 3E+6 viable cell/mL following the certificate of analysis.
(§1) Cellular viability assay: Kasumi-1 cells were plated (50 μL) in 96-well cell culture microplates (PS, F-Bottom black, Cellstar, Greiner 655086) at final concentration of 15000 cells/well. The compounds of the invention were dissolved in DMSO, and a titration curve was generated at 1000× final concentration. Compounds were then diluted 500× in tissue culture medium (RPMI-1640, 10% FBS). Then 50 μl of test compound were added to Kasumi-1 cells in a final DMSO concentration of 0.1%, final volume 100 μl. A gas permeable sealing membrane was applied to the plate to prevent evaporation (Breathe-Easy sealing membrane, Sigma Z380059-1PK) and cells were incubated for 72 h at 37° C., 5% CO2, 80% RH. After 72h of treatment, the plates were taken out of the incubator and left for a few minutes at room temperature. 100 μl of the reconstituted reagent ATP-Lite One Step (Perkin Elmer, 6016739) was added to each well. The plates were shaken for 2 min at 700 rpm and placed in the dark for 10 minutes at room temperature before measurement of luminescence intensity with Envision instrument. The raw data were expressed in RLU. Results were expressed in % of viability relative to DMSO control and an IC50 was calculated based on the concentration-response profile of individual compounds.

The target in assay [1] is T1, recombinant METTL3/METTL14 complex (Homo sapiens, UniProt Q86U44).
T1 construct: purchased Active Motif 311970; host or cells: Sf9 cells
As to the kind of experiment: METTL3/14 Scintillation Proximity Assay (SPA), RNA methyltransferase activity. It is filed as biochemical. The conditions noted are these: 5.31 nM METTL3/14 complex, 250 nM RNA substrate, 1 μM 3H-SAM, 90 min; for compounds marked * best of the two separated forms. On the technique in general: In a scintillation proximity assay essentially only radioactivity close to the scintillant gives light.

Another assay deals with Caov-3 cells. Put plainly: Caov-3 cellular viability assay (ATP-Lite, 72 h). The conditions noted are these: Homo sapiens, ATP-Lite luminescence, % viability relative to DMSO. Format: cell-based. How it is done:
Caov-3 cell line was purchased from ATCC (ATCC® HTB-75™). Cells were isolated from the ovary of a ovarian cancer patient.
Caov-3 cells are cultured in DMEM (ATCC 30-2002) containing 10% heat-inactivated and 0.22 μm filtered FBS (Gibco 10270-106). The cells are seeded at 2.5E+4cell/cm^2 within the recommended subcultivation ratio of 1:3 to 1:6, as stated on the certificate of analysis issues by the provider of the cells.
as §1, with “assay: Caov-3” for “assay: Kasumi-1”, “of 10000” for “of 15000”, “to Caov-3” for “to Kasumi-1”, “After 72 h” for “After 72h”, “6016739) were” for “6016739) was”

Usually IC50 stands for the concentration that inhibits the measured activity by half.

T1 sequence (Q86U44 whole entry): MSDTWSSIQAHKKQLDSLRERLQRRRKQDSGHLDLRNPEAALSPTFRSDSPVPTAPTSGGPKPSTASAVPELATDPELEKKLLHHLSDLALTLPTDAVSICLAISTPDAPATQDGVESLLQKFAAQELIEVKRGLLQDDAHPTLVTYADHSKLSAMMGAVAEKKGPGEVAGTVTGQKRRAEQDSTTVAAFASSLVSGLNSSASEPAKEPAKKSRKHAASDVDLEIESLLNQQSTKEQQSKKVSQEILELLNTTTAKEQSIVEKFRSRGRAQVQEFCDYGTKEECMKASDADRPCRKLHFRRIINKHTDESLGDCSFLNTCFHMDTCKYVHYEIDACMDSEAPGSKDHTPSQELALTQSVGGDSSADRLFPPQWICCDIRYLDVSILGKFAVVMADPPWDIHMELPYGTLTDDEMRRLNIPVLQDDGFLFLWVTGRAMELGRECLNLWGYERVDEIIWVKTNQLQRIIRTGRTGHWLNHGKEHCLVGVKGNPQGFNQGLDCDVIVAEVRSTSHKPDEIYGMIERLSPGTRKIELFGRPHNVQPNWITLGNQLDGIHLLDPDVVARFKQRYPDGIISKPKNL
T1 sequence (Q9HCE5 whole entry partner): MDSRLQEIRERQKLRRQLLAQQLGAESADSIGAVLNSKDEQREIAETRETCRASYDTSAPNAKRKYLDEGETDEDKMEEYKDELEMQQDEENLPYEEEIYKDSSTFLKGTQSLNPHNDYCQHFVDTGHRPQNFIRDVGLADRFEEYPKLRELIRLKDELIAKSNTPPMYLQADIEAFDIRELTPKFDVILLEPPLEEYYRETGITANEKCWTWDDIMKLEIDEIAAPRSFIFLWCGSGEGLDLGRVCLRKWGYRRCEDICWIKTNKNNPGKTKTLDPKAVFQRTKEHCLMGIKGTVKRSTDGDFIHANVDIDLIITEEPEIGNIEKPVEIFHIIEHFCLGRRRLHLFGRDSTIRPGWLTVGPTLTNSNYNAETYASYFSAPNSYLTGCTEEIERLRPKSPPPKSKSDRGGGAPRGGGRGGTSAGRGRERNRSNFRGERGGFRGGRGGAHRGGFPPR

With `O=C(NCc1ccc(N2CCC[C@@H](NCC3CCC3)C2)nn1)c1cc(=O)n2ccccc2n1` [Compound 002, (R)-N-((6-(3-((cyclobutylmethyl)amino)piperidin-1-yl)pyridazin-3-yl)methyl)-4-oxo-4H-pyrido[1,2-a]pyrimidine-2-carboxamide], the IC50 in the assay on Kasumi-1 cells is > 5000 nM; in assay [1], ≤ 50 nM; in the assay on Caov-3 cells, > 5000 nM.
For `c1ncc(C2CCC2)cc1-c1cn(C2(c3ccc(N4CCC[C@@H](NCC5CC5)C4)cn3)COC2)nn1` [Compound 312, (R)-1-(6-(3-(4-(5-cyclobutylpyridin-3-yl)-1H-1,2,3-triazol-1-yl)oxetan-3-yl)pyridin-3-yl)-N-(cyclopropylmethyl)piperidin-3-amine], the figures for the IC50 (in the assay on Kasumi-1 cells; in assay [1]; in the assay with Caov-3 cells) were ≤ 500 nM, ≤ 50 nM and ≤ 500 nM, respectively.
Consider `CC(n1cnc(-c2cncc(N3CCCC3)c2)c1)n1ccc(N2CCC[C@@H](NCC3CC3)C2)cc1=O` (mixture of isomers) [Compound 252, 4-((R)-3-((cyclopropylmethyl)amino)piperidin-1-yl)-1-(1-(4-(5-(pyrrolidin-1-yl)pyridin-3-yl)-1H-imidazol-1-yl)ethyl)pyridin-2(1H)-one], for which the IC50 with Kasumi-1 cells is ≤ 500 nM; in assay [1] it was ≤ 50 nM; with Caov-3 cells, ≤ 500 nM.
On to `CC(c1ccc(N2CCC[C@@H](NCC3CC3)C2)nn1)c1nnc(-c2cncc(N3CCCC3)n2)o1` (single isomer, unassigned) [Compound 347], for which the 50% inhibitory concentration (IC50) in the assay with Kasumi-1 cells is 500 to 5000 nM; in assay [1] it was ≤ 50 nM; in the assay with Caov-3 cells, 500 to 5000 nM.
For `COc1cncc(-c2cn(Cc3ccc(N4CCC[C@@H](NCC5CCC5)C4)cn3)nn2)c1` [Compound 087, (R)-N-(cyclobutylmethyl)-1-(6-((4-(5-methoxypyridin-3-yl)-1H-1,2,3-triazol-1-yl)methyl)pyridin-3-yl)piperidin-3-amine], the IC50 is 500 to 5000 nM in the assay with Kasumi-1 cells, ≤ 50 nM in assay [1] and 500 to 5000 nM with Caov-3 cells.
Take `COc1cc(-c2cn(Cc3ccc(N4CCC[C@@H](NC5CCCC5)C4)nn3)nn2)c2cn[nH]c2c1` [Compound 023, (R)-N-cyclopentyl-1-(6-((4-(6-methoxy-1H-indazol-4-yl)-1H-1,2,3-triazol-1-yl)methyl)pyridazin-3-yl)piperidin-3-amine]: the IC50 with Kasumi-1 cells and in the assay on Caov-3 cells was 500 to 5000 nM each time.
As to `CC(c1ccc(N2CCC[C@@H](NCC3CCC3)C2)cn1)n1cc(-c2cncc(N(C)C)c2)nn1` (single isomer, unassigned) [Compound 143], the values for the IC50 (with Kasumi-1 cells; in assay [1]; in the assay with Caov-3 cells) were ≤ 500 nM, ≤ 50 nM and ≤ 500 nM, respectively.
On to `CC(n1cnc(-c2cncc(N(C)C)c2)c1)n1ccc(N2CCC[C@@H](NCC3CCC3)C2)cc1=O` (single isomer, unassigned) [Compound 166], for which the 50% inhibitory concentration (IC50) with Kasumi-1 cells was ≤ 500 nM; in assay [1], ≤ 50 nM; in the assay on Caov-3 cells, ≤ 500 nM.
Regarding `CC(c1ccc(N2CCC[C@@H](NCC3CCC3)C2)cn1)n1cc(-c2cncc(-n3cccn3)n2)nn1` (single isomer, unassigned) [Compound 293], the concentration for half-maximal inhibition (IC50) in the assay with Kasumi-1 cells was 500 to 5000 nM; in assay [1] it was ≤ 50 nM; in the assay on Caov-3 cells, 500 to 5000 nM.
As to `CC(NC(=O)c1cc(=O)n2ccccc2n1)c1ccc(N2CCC[C@@H](NCC3CCC3)C2)cn1` (single isomer, unassigned) [Compound 058], the half-maximal inhibitory concentration (IC50) in the assay on Kasumi-1 cells is 500 to 5000 nM; in assay [1] it was ≤ 50 nM; with Caov-3 cells it was 500 to 5000 nM.
In the case of `CC(c1ccc(N2CCC[C@@H](NCC3CCC3)C2)nn1)n1cc(-c2cncc(N3CCCC3)c2)nn1` (stereo partly drawn) [Compound 257, (3R)—N-(cyclobutylmethyl)-1-(6-(1-(4-(5-(pyrrolidin-1-yl)pyridin-3-yl)-1H-1,2,3-triazol-1-yl)ethyl)pyridazin-3-yl)piperidin-3-amine], the IC50 is ≤ 500 nM with Kasumi-1 cells, ≤ 50 nM in assay [1] and ≤ 500 nM with Caov-3 cells.
For the molecule `CC(c1ccc(N2CCC[C@@H](NCC3CCC3)C2)nn1)n1cnc(-c2cncc(N(C)C)c2)c1` (stereo partly drawn) [Compound 173, 5-(1-(1-(6-((R)-3-((cyclobutylmethyl)amino)piperidin-1-yl)pyridazin-3-yl)ethyl)-1H-imidazol-4-yl)-N,N-dimethylpyridin-3-amine], the IC50 with Kasumi-1 cells is ≤ 500 nM; in assay [1], ≤ 50 nM; in the assay on Caov-3 cells it was ≤ 500 nM.
Regarding `COc1cncc(-c2cn(Cc3ccc(N4CCC[C@@H](NCC5CCC5)C4)nc3)nn2)c1` [Compound 086, (R)-N-(cyclobutylmethyl)-1-(5-((4-(5-methoxypyridin-3-yl)-1H-1,2,3-triazol-1-yl)methyl)pyridin-2-yl)piperidin-3-amine], the values for the concentration for half-maximal inhibition (IC50) (in the assay on Kasumi-1 cells; in assay [1]; in the assay with Caov-3 cells) were 500 to 5000 nM, ≤ 50 nM and 500 to 5000 nM, respectively.
Take `CC(n1cc(-c2cncc(N3CC4(C3)CC4(F)F)c2)nn1)n1ccc(N2CCC[C@@H](NCC3CC3)C2)cc1=O` (single isomer, unassigned) [Compound 211]: the concentration for half-maximal inhibition (IC50) in the assay on Kasumi-1 cells was ≤ 500 nM; in assay [1] it was ≤ 50 nM; in the assay with Caov-3 cells, ≤ 500 nM.
As for `c1cc2cc(-c3cn(Cc4ccc(N5CCC[C@@H](NCC6CCC6)C5)nn4)nn3)cnc2[nH]1` [Compound 009, (R)-1-(6-((4-(1H-pyrrolo[2,3-b]pyridin-5-yl)-1H-1,2,3-triazol-1-yl)methyl)pyridazin-3-yl)-N-(cyclobutylmethyl)piperidin-3-amine], the half-inhibitory concentration (IC50) with Kasumi-1 cells is 500 to 5000 nM; in assay [1] it was ≤ 50 nM; in the assay with Caov-3 cells it was 500 to 5000 nM.
As to `CC(C)Nc1cncc(-c2cn(C(C)n3ccc(N4CCC[C@@H](NCC5CCC5)C4)cc3=O)nn2)c1` (single isomer, unassigned) [Compound 158], the results for the IC50 (with Kasumi-1 cells; in assay [1]; in the assay with Caov-3 cells) were ≤ 500 nM, ≤ 50 nM and ≤ 500 nM, respectively.
As to `O=C(Nc1cc(=O)n2ccccc2n1)C1(c2ncc(N3CCC[C@@H](NCC4CCC4)C3)cc2F)COC1` [Compound 298, (R)-3-(5-(3-((cyclobutylmethyl)amino)piperidin-1-yl)-3-fluoropyridin-2-yl)-N-(4-oxo-4H-pyrido[1,2-a]pyrimidin-2-yl)oxetane-3-carboxamide], the half-maximal inhibitory concentration (IC50) is 500 to 5000 nM in the assay with Kasumi-1 cells, ≤ 50 nM in assay [1] and 500 to 5000 nM with Caov-3 cells.
Turning to `CC(n1cc(-c2cc(N(C)C)cnn2)nn1)n1ccc(N2CCC[C@@H](NCC3CCC3)C2)cc1=O` (single isomer, unassigned) [Compound 198], the IC50 is 500 to 5000 nM in the assay with Kasumi-1 cells, ≤ 50 nM in assay [1] and 500 to 5000 nM in the assay on Caov-3 cells.
Turning to `CC(n1nnc(-c2cncc(N(C)C)c2)n1)n1ccc(N2CCC[C@@H](NCC3CCC3)C2)cc1=O` (single isomer, unassigned) [Compound 179], the concentration for half-maximal inhibition (IC50) in the assay on Kasumi-1 cells was ≤ 500 nM; in assay [1] it was ≤ 50 nM; with Caov-3 cells it was ≤ 500 nM.
Regarding `CC(c1ccc(N2CCC[C@@H](NCC3CC3)C2)nn1)c1nnc(-c2cncc(N3CCCC3)n2)s1` (stereo partly drawn) [Compound 353, (3R)—N-(cyclopropylmethyl)-1-(6-(1-(5-(6-(pyrrolidin-1-yl)pyrazin-2-yl)-1,3,4-thiadiazol-2-yl)ethyl)pyridazin-3-yl)piperidin-3-amine], the results for the IC50 (in assay [1]; with Caov-3 cells) were ≤ 50 nM and ≤ 500 nM, respectively.
On to `COc1cc(-c2cn(Cc3ccc(N4CCC[C@@H](N(C)CC5CCC5)C4)nn3)nn2)c2cn[nH]c2c1` [Compound 022, (R)-N-(cyclobutylmethyl)-1-(6-((4-(6-methoxy-1H-indazol-4-yl)-1H-1,2,3-triazol-1-yl)methyl)pyridazin-3-yl)-N-methylpiperidin-3-amine], for which the IC50 was 500 to 5000 nM in the assay on Kasumi-1 cells and > 5000 nM in the assay with Caov-3 cells.

The values above are taken from patent US20250002475A1 (EPICS THERAPEUTICS, priority 2023, published 2025).
